How the values were obtained:
[1] = test system: patients with Type 2 diabetes; experiment: Clinical study (12-week core + 40-week extension): HbA1c in patients with Type 2 diabetes on metformin; assay type: in vivo, human; conditions: over one year
Description: This is a 40-week extension to core study, a 12-week randomized, parallel group, multi-center, placebo-controlled trial in patients with Type 2 diabetes who are already receiving metformin at a stable dosage of 1500-3000 mg daily. Patients treated with placebo, LAF237 50 mg OD (omnia die/once a day) in addition to metformin during the core study and maintained their treatment regimen in the extension. […] All patients are randomized to receive either placebo or LAF237 (50 mg) once dally for 52 weeks in addition to metformin at an unchanged dosage. During the 4-week run-in period, all patients receive LAF237 placebo tablets and are assessed for inclusion in the study. Patients meeting the inclusion criteria at the Baseline visit receives randomized treatment once daily for 52 weeks. The total study duration for each patient is 56 weeks. Throughout the study, patients are required to maintain their prior diet and exercise habits and to continue to take metformin at an unchanged dosage. […] This is measured by using Tosoh ion exchange High Performance Liquid Chromotography (HPLC). Primus Affinity HPLC is used as a back-up method if hemoglobin variants or hemoglobin degradation peaks are observed. The primary efficacy variable is change from baseline in HbA1c at the end of the study. […]

[2] = test system: patients with Type 2 diabetes; experiment: Clinical study: safety and tolerability, study completion; assay type: in vivo, human; conditions: 52 weeks, in combination with metformin
Excerpt: Safety assessments consist of monitoring and recording all non-serious and serious adverse events (SAE), the regular monitoring of hematology, blood chemistry and urinalysis values, regular measurement of vital signs, the performance of physical examinations and body weight measurements. The assessment of safety is based mainly on the frequency of adverse events and on the number of laboratory values that fall outside of pre-determined ranges. Other safety data (e.g. vital signs) will be considered as appropriate.

N#C[C@@H]1CCCN1C(=O)CNC12CC3CC(CC(O)(C3)C1)C2 [LAF237, (S)-1-[(3-hydroxy-1-adamantyl)amino]acetyl-2-cyano-pyrrolidine]
course of HbA1c levels (in words) [1]: decreased significantly
tolerability [2]: well tolerated

Reference: patent US7935723B2, “Use of organic compounds” (Novartis Pharma AG, priority 2004, dated 2011)
